Data taken from patent publication US20090186864A1, “RUTHENIUM (II) COMPOUNDS” (priority 2006, published 2009).
pIC50: −log10 of the molar value.

Columns and labels:
[1] = test system: A2780 ovarian cancer cell line; assay: Cytotoxicity against A2780 ovarian cancer cell line (Coulter counter cell count, Example 10); format: cell-based, human; details: 24 hours exposure, further 72 h growth, stock solutions in deionised water
Description: Some compounds were tested for cytotoxicity against the A2780 ovarian cancer cell line as follows.
(§1) The human ovarian cells were added at a density of 1×10^4 cells per well to 24-well tissue culture trays (Falcon Plastic, Becton Dickenson, Lincon Park, N.J., USA) and allowed to grow for 72 hours before addition of the Ru(II) arene complexes. Stock solutions of the ruthenium compounds were made up fresh in deionised water and sonicated to ensure complete dissolution. These stock solutions were diluted with media to give final concentrations ranging between 0.1 and 100 μM. All compounds were evaluated at each concentration in duplicate wells, and complete assays were repeated a minimum of three times. Cisplatin or carboplatin was employed as a positive and comparative control in each experiment. After 24 hours exposure the drug-containing medium was removed, the cells washed with phosphate buffered saline (PBS) and fresh medium was added. Cell number was assessed after a further 72 h growth using s Coulter counter (Coulter Electronics Ltd, Luton, UK) and the IC50 values (concentration of drug causing 50% growth inhibition) calculated by linear regression analysis comparing the inhibitory effects of the drugs against the growth of untreated cells.

[2] = test system: cisplatin resistant cell line (A2780^cis); assay: Cytotoxicity against cisplatin resistant cell line A2780cis (Example 10); format: cell-based, human
Description: as §1

A2780 cancer cell line = assay: Inhibitory growth activity against A2780 cancer cell line (sulforhodamine B assay, Example 11); format: cell-based, human; details: 24 hours exposure, 96 hours recovery, 0.5% DMSO
Description: (§2) Other compounds were tested for inhibitory growth activity against the A2780 and A549 cancer cell lines as follows. Each drug was tested for activity at six different concentrations (100 μM, 50 μM, 10 μM, 5 μM, 1 μM and 0.1 μM) and each concentration was tested in triplicate, relative to a cisplatin control.
(§3) The A2780 cancer cell line was maintained by growing the cells in RPMI media supplemented with 5% fetal bovine serum, 1% penicillin/streptomycin and 2 mM L-glutamine. The cells were split when approximately 70-80% confluence were reached using 0.25% trypsin/EDTA. The cells were kept incubated at 37° C., 5% CO2, high humidity. The A549 cancer cell line was maintained by growing the cells in DMEM media supplemented with 10% fetal bovine serum, 1% penicillin/streptomycin and 2 mM L-glutamine. The cells were split when approximately 70-80% confluence were reached using 0.25% trypsin/EDTA. The cells were kept incubated at 37° C., 5% CO2, high humidity.
(§4) A2780 cancer cells were plated out at 5000 cells/well (±10%) on day one. A549 cancer cells were plated out at 2000 cells/well (±10%) on day two. On day three the test compound was dissolved in DMSO to give a stock solution of 20 mM and serial dilutions were carried out in DMSO to give concentrations of drug in DMSO of 10 mM, 2 mM, 1 mM, 0.2 mM and 0.02 mM. These were added to the wells to give the six testing concentrations and a final concentration of DMSO as 0.5% (v/v) with a total volume of drugs and media to be 200 μl. The cells were exposed to the drug for 24 hours then, after drug removal, fresh media was given and the cells were incubated for 96 hours recovery time. The remaining biomass was estimated by the sulforhodamine B assay. The cells were then fixed using 50 μl 50% (w/v) TCA and incubated at 4° C. for one hour. The biomass was stained with 100 μl 0.4% (w/v) sulforhodamine B in 1% acetic acid.
(§5) The dye was solubilised with Tris Buffer and the absorbance was read using a BMG Fluostar microplate reader at 595 nm. A baseline correction at 690 nm was subtracted from the values. The absorbance for 100% cell survival was based on the average absorbance for the 0.1 μM dosed triplicate for that drug. IC50 values were calculated using XL-Fit version 4.0.

A549 cancer cell line = assay: Inhibitory growth activity against A549 cancer cell line (sulforhodamine B assay, Example 11); format: cell-based; details: 24 hours exposure, 96 hours recovery, 0.5% DMSO
Description: as §2, §3, §4, §5

“[(η^6-indan)RuCl(bipydiol-N,N)Cl] [Compound 1]” showed a pIC50 [1] of 5.52, a pIC50 ([2]; A2780cis cisplatin resistant cell line) of 5.68 and a fold resistance ([2]; A2780cis versus A2780) of 0.7 fold. For the same substance, the pIC50 (A2780 cancer cell line) was 4.75 and the pIC50 (A549 cancer cell line) was 4.41.

For “[(η^6-THN)Ru(bipydiol-N,N—H)Cl] [Compound 6]”, the pIC50 (A2780 cancer cell line) was 5.14 and the pIC50 (A549 cancer cell line) was 4.63.

In the case of “[(η^6-DHA)Ru(bipydiol-N,N—H)Cl] [Compound 5]”, the pIC50 (A2780 cancer cell line) was 4.78 and the pIC50 (A549 cancer cell line) was 4.42.

“[(η^6-biph)RuCl(bipy(OH)O^−)] [Compound 8]” was tested, and the pIC50 (A2780 cancer cell line) was 4.40.

“[(η^6-indan)Ru(phenanthroline-N,N)Cl]PF6 [Compound 2]” gave a pIC50 [1] of 4.28.

Substance “[(η-indan)Ru(2,9-Me2-phen-N,N)Cl]PF6 [Compound 3]” has a pIC50 [1] of under 4.30.

Substance “[(η^6-bz)RuCl(bipy(OH)O^−)] [Compound 7]” has a pIC50 (A2780 cancer cell line) of 4.19.

Substance “[(η^6-THA)Ru(bipydiol-N,N—H)Cl] [Compound 4]” has a pIC50 (A2780 cancer cell line) of 5.10 and a pIC50 (A549 cancer cell line) of 4.68.

Substance “[(η^6-p-terp)RuCl(bipy(OH)O—)] [Compound 9]” has a pIC50 (A2780 cancer cell line) of 4.68 and a pIC50 (A549 cancer cell line) of 4.21.
